# Measured values from ChEMBL document CHEMBL1122711, “Design, synthesis, and testing of potential antisickling agents. 4. Structure-activity relationships of benzyloxy and phenoxy acids” (J Med Chem, 1984).
# Assays:
# [1] = human, 20000 µM
# Description: Solubility ratio ([HbS+drug (20 mM)]/[HbS-drug]
# [2] = human, 5000 µM
# Description: Solubility ratio ([HbS+drug (5 mM)]/[HbS-drug])
# [3] = human, 10000 µM
# [4] = human, 40000 µM
# Description: Solubility ratio ([HbS+drug (40 mM)]/[HbS-drug])
Solubility ratio [1],Solubility ratio [2],Solubility ratio [3],Solubility ratio [4],Compound
1.145,1.018,1.077,1.248,O=C(O)COc1c(Br)cc(Br)cc1Br
1.102,1.031,1.035,1.189,Cc1ccc(OCC(=O)O)c(Br)c1
1.247,1.054,1.134,1.322,O=C(O)COc1ccc2c(c1)CCC2
1.124,1.033,1.054,1.216,Cc1cc(OCC(=O)O)cc(C)c1Cl
1.118,1.027,1.06,1.243,Cc1ccc(OCC(=O)O)cc1C
1.295,1.079,1.13,1.246,O=C(O)COCc1ccc(Cl)cc1Cl
1.103,1.002,1.032,1.25,O=C(O)COC(c1ccccc1)c1ccc(Cl)cc1 (centres undefined)
1.155,1.018,1.064,1.302,CC(C)(Oc1ccc(Cl)cc1)C(=O)O [CLOFIBRIC ACID]

# Further lines, the compound ahead of its results:
Compound,Solubility ratio [1],Solubility ratio [2],Solubility ratio [3],Solubility ratio [4]
Cc1cc(C)c(C)c(OCC(=O)O)c1,1.18,1.035,1.086,1.351
CC(C)(OCc1ccc(Br)cc1)C(=O)O,1.193,1.048,1.086,1.379
O=C(O)C(CCc1ccccc1)C(=O)O,1.101,1.007,1.058,1.263
CN(C)c1ccc(OCC(=O)O)cc1.Cl,1.011,1.022,1.044,1.057
"O=C(O)COc1ccc(Cl)cc1Cl [2,4-DICHLOROPHENOXYACETIC ACID]",1.151,1.049,1.083,1.313
CC(C)(Oc1ccc(CCNC(=O)c2ccc(Cl)cc2)cc1)C(=O)O [BEZAFIBRATE],0.981,0.954,0.932,1.198
Cc1ccc(C)c(OCCCC(C)(C)C(=O)O)c1 [GEMFIBROZIL],1.117,1.04,1.073,1.234
N[C@@H](Cc1ccccc1)C(=O)O [PHENYLALANINE],1.093,1.036,1.048,1.178
